Activity calls are given as the source filed them.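 The calls were made as follows: active = response changes with concentration, giving a dose-dependent curve as judged by the depositor; inactive = the rest, with no dose-dependent response.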
Biological target: Muscarinic acetylcholine receptor M1 (Homo sapiens) (UniProt P11229)
Assay: potentiation of ACh response at hM1 – CHO-K1 cells, calcium fluorescence, selectivity assay for M4 PAM optimization, SAR follow-up (AID 623924)
Settings: ACh EC20 potentiation

Muscarinic acetylcholine receptor M1 (Homo sapiens), sequence (P11229 whole entry, looked up): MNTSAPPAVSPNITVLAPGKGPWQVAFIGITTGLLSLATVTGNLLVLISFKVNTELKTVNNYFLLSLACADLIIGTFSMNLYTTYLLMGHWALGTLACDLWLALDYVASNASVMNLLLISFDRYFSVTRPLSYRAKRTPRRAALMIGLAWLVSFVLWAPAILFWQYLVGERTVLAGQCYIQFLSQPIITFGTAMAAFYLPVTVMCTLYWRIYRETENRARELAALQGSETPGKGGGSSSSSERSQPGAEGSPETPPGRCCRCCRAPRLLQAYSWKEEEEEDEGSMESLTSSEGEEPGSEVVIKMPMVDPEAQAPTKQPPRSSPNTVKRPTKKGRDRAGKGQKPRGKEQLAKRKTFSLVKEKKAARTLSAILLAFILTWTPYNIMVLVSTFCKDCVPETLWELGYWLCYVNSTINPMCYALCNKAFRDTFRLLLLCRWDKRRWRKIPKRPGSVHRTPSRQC

**Q.** `Cc1nc2sc(C(=O)NCc3ccccc3)c(N)c2c(C)c1Cl` was tested. Which outcome did it give?
**A.** inactive

**Q.** How did the outcome turn out when `Cc1nc2sc(C(=O)NCc3ccncc3)c(N)c2c(C)c1Cl` was run?
**A.** inactive

**Q.** `Cc1nc2sc(C(=O)NCc3cccnc3)c(N)c2c(C)c1Cl` was tested. Which outcome did it give?
**A.** inactive

**Q.** `Cc1nc2sc(C(=O)NCc3ccc4c(c3)OCO4)c(N)c2c(C)c1Cl` was tested. Which outcome did it give?
**A.** inactive

**Q.** How did the EC50 turn out when `Cc1nc2sc(C(=O)NC3CC3)c(N)c2c(C)c1Cl` was run?
**A.** 969 nM

Same assay, conditions: ACh EC20 potentiation, at 30 µM (top of the series)

**Q.** `Cc1nc2sc(C(=O)NCc3ccncn3)c(N)c2c(C)c1Cl` was tested. Which “% ACh max response” value did it give?
**A.** inactive

**Q.** With `Cc1nc2sc(C(=O)NCc3nccs3)c(N)c2c(C)c1Cl` as the compound, how does the “% ACh max response” value read?
**A.** inactive

**Q.** With `Cc1nc2sc(C(=O)NCc3cccc(F)c3F)c(N)c2c(C)c1Cl` as the compound, how does the “% ACh max response” value read?
**A.** inactive

**Q.** Which “% ACh max response” value does the source give for `Cc1nc2sc(C(=O)NCCc3ccncc3)c(N)c2c(C)c1Cl` here?
**A.** inactive

**Q.** With `COc1ccc(C)c2sc(NC(=O)c3ccncc3)nc12` as the compound, how does the “% ACh max response” value read?
**A.** inactive

— PubChem BioAssay AID623924 (Vanderbilt Specialized Chemistry Center, 2012)
